According to publication PMC6706930, “A novel oral micellar fenretinide formulation with enhanced bioavailability and antitumour activity against multiple tumours from cancer stem cells” (Journal of Experimental & Clinical Cancer Research : CR, 2019):
Like-named read-outs stand apart in the source and are kept apart here.

Test: Plasma pharmacokinetics, chronic study (150 mg/Kg single vs daily for 2 weeks)
Type: in vivo, CD1 female mice
Conditions: for relative percent amount of metabolite versus 4-HPR in plasma: after single and repeated treatment; for AUC(0-t): plasma, po, 150 mg/kg
Method: The experiments were performed in CD1 female mice, 7 weeks of age, (body weight 25 ± 2 g) obtained from Envigo RMS SrL (Udine, Italy). They were maintained under specific-pathogen-free conditions with constant temperature and humidity, according to institutional guidelines regularly checked by a certified veterinarian. Animal experimentation was conducted in conformance with the following laws, regulations, and policies governing the care and use of laboratory animals: Italian Governing Law (D. l. 26/2014; Authorization n.19/2008-A issued March 6, 2008 by the Ministry of Health). Mario Negri Institutional Regulations and Policies providing internal authorizations for persons conducting animal experiments (Quality Management System Certificate –UNI EN ISO 9001:2008 – Reg. N 86121). The experimental protocol was reviewed by the Mario Negri Institute Ethical Committee and approved by the Italian Ministry of Health (Aut. Min. No 489/2016-Pr).
The pharmacokinetics of oral Bio-nFeR was investigated in comparison to that of the reference formulation NCI-FeR, after single administration of multiple doses and after chronic administrations, daily for 2 weeks or bi-daily for 1 week. Bio-nFeR was reconstituted at 20 mg/mL fenretinide to allow the administration of 200 mg/Kg fenretinide that corresponded to the highest dose. The doses of 100, 50 and 10 mg/Kg were administered by using serial dilution of the 20 mg/mL solution.
NCI-FeR prepared, as per the NCI instructions, at 11.6% w:w fenretinide:internal capsule components, was diluted with corn oil to obtain the treatment solutions at the concentrations of 20, 15 and 10 mg/mL, corresponding to the administered doses of 200, 150 and 100 mg/Kg respectively.
The oral pharmacokinetics of Bio-nFeR were investigated in four independent groups of 24 mice, randomized to receive different treatment with the following fenretinide equivalent doses: 10, 50, 100 and 200 mg/Kg. The drug was administered by oral gavage and after treatment, blood samples were taken at 15 and 30 min and at 1, 2, 4, 8/10, 24 and 48 h and collected in heparinized tubes from the retro-orbital plexus of the mice under isoflurane anesthesia. Mice were then sacrificed by cervical dislocation and liver, kidney and brain were removed and immediately frozen in dry-ice for future determination. To obtain plasma, blood was centrifuged at 4000 rpm for 10 min at 4 °C. To evaluate fenretinide and metabolites excretion, urine and faeces were collected over a 0–24 h and 24–48 h periods. The collection was performed in three mice per group of treatment, individually housed into metabolic cages for urine and faeces collection. All the biological samples were stored at − 20 °C until analysis. To compare the absorption of Bio-nFeR to NCI-FeR and to study the bioavailability, another independent groups of 24 mice were randomized to receive an oral dose of 200 mg/Kg of NCI-FeR. Blood samples were taken at the time reported above. Twenty-four hours fractions of urine and faeces were collected in three mice per group of treatment. Plasma and the other biological specimens were stored at − 20 °C until analysis. Chronic study: the oral pharmacokinetic of Bio-nFeR in comparison with NCI-FeR were also investigated after chronic administrations. Mice were divided in three independent groups, randomized to receive a single treatment of 150 mg/Kg or different repeated treatments of 150 mg/Kg, daily for 2 weeks (12 days on and 2 days off), or 100 mg/Kg bi-daily for 1 week (5 days on 2 days off). Bio-nFeR and NCI-FeR were administered by oral gavage, collecting blood samples at 0.5, 1, 2, 4, 8/10 and 24 h, the day of the single treatment and at 0, 1, 2, 4, 8/10, 24 and 48 h after the last dose of both the chronic treatments. The procedures of blood collection, plasma preparation, sacrifice of mice and storing of samples were as reported in acute study. […]

[1] = plasma analyte, oral Bio-nFeR 150 mg/kg daily, 2 week
[2] = plasma analyte, oral Bio-nFeR 150 mg/kg, Day 1
[3] = female, CD1, mouse, plasma analyte, oral Bio-nFeR 150 mg/kg daily, 2 week
[4] = female, CD1, mouse, plasma analyte, oral Bio-nFeR 150 mg/kg, Day 1

| relative percent amount of metabolite versus 4-HPR in plasma | AUC 0-last [1] | Cmax ±SD [1] | HL [1] | Tmax [1] | AUC 0-last [2] | Cmax ±SD [2] | HL [2] | Tmax [2] | AUC(0-t) [3] | AUC(0-t) [4] | Cmax at 2 weeks [3] | Tmax at 2 weeks [3] | Cmax [4] | Tmax (female, CD1, mouse, plasma analyte, oral Bio-nFeR 150 mg/kg, Day 1, read-out: Tmax) | Structure (SMILES) |
| --- | --- | --- | --- | --- | --- | --- | --- | --- | --- | --- | --- | --- | --- | --- | --- |
| ~15% | 22086.1 ng·h/mL | 1147.9 ng/mL | 11.2 h | 4 h | 10435.4 ng·h/mL | 798.0 ng/mL | 8.6 h | 4 h |  |  |  |  |  |  | COc1ccc(NC(=O)\C=C(C)/C=C/C=C(C)\C=C\C2=C(C)CCCC2(C)C)cc1 [MPR] |
|  |  |  | 5.7 h |  |  |  | 5.3 h |  | 85100 ng·h/mL | 56900 ng·h/mL | 6810 ng/mL | 4 h | 6350 ng/mL | 20 h | CC1=C(/C=C/C(C)=C/C=C/C(C)=C/C(=O)Nc2ccc(O)cc2)C(C)(C)CCC1 [4-HPR, 4-hydroxy (phenyl)retinamide, reference compound] |
| about 50% | 54434.2 ng·h/mL | 4282.6 ng/mL | 4.7 h | 4 h | 33726.1 ng·h/mL | 2979.4 ng/mL | 3.9 h |  |  |  |  |  |  |  | CC1=C(/C=C/C(C)=C/C=C/C(C)=C/C(=O)Nc2ccc(O)cc2)C(C)(C)CCC1=O [4-oxo-4-HPR] |
